Earlier results as cited in patent publication US12220439B2, “Methods of diagnosing and treating dry eye syndrome and compositions for treating a human eye” (Akrivista LLC, priority 2017, dated 2025).

Legend:
HLA-DR = details: dry eye disease biomarker
Pseudomonas aeruginosa = details: strains of Pseudomonas aeruginosa
corneal cells = details: concentrations from about 0.004% to about 0.02% (w/v)

Row | Compound | HLA-DR presence on treatment (HLA-DR) | effectiveness against potential contaminants (Pseudomonas aeruginosa) | effect on corneal epithelium (corneal cells)
1 | C[C@@H]1CCN(C(=O)CC#N)C[C@@H]1N(C)c1ncnc2[nH]ccc12 [tofacitinib] | Presence decreased with CsA |  | 
2 | benzalkonium chloride [BAK] |  | not effective | can lead to corneal epithelial separation
